Laboratory results published in patent publication US20230255954A1, “INTERLEUKIN 33 (IL-33) INHIBITION FOR TREATMENT OF CANCER, FIBROSIS AND INFLAMMATION” (The General Hospital Corporation, priority 2020, published 2023).

Columns and labels:
[1] = tested on: Pam212 cells; assay: Pam212 proliferation assay (CellTiter 96); format: cell-based, mouse; conditions: 10 μM SB431542 for 3 hours; to the same degree as knocking down IL-33
Experimental: Pam212 cells were transfected with siIl33 (QIAGEN, catalog no. SI00870443) or siCon (QIAGEN, catalog no. 1022076) using Lipofectamine RNAiMax Transfection reagent (Thermo Fisher Scientific, catalog no. 13778075) according to the manufacturer's instructions. The following day, cells were divided into 96 well plates with a serial dilution of cells. The next day, the cells were treated with 5 nM of TGF-β (Cell Signaling Technology, catalog no. 5231LF) or 10 μM of SB431542 for 3 hours. After incubation, the proliferation assay was performed by CellTiter 96 Non-radioactive Cell proliferation assay (Promega, Madison, Wis., catalog no. G4001) according to the manufacturer's instructions. O.D was recorded as the measure of cell proliferation in each well. Absorbance (O.D) reading is directly proportional to the cell proliferation in each well.

[2] = tested on: Pam212 cells; assay: Ki67+ proliferating Pam212 cells; format: cell-based, mouse
[3] = tested on: DNFB-treated WT and IL-33KO mice skin; assay: DNFB chronic skin inflammation with SB431542; format: in vivo, mouse; conditions: 22 days
Experimental: Four- to six-week-old male and female mice were shaved on their abdomen and sensitized to 50 μL 0.5% 1-Fluoro-2,4-dinitrobenzene (DNFB, Millipore Sigma, St. Louis, Mo., catalog no. 42085) dissolved in acetone plus olive oil at a 3:1 ratio (refer to as acetone). Two days after first sensitization, mice were re-sensitized to 50 μL 0.25% DNFB on their abdomen. After 5 days, mice were challenged with 100 μL 0.25% DNFB on their back skin, which was repeated three times per week for 22 days. The skin rash was monitored over the duration of the study.
(§1) To inhibit the TGF-β/SMAD signaling pathway (Mordasky Markell et al, 2010), mice were treated with 10 μM SB431542 (Millipore Sigma, catalog no. 301836-41-9) in 200 μL acetone or 200 μL acetone alone to their back skin twice a week. SB431542/acetone treatments were given in between TPA or DNFB doses.
Tissue samples were collected and fixed in 4% paraformaldehyde (Millipore Sigma, catalog no. P6148) overnight at 4° C. Next, tissues were dehydrated in ethanol, processed and embedded in paraffin. 5 μm sections paraffin-embedded tissues were placed on slides, deparaffinized and stained with H&E. For immunohistochemistry, antigen retrieval was performed in 500 μL of antigen unmasking solution (VECTOR Laboratories, Burlingame, Calif., catalog no. H3300) diluted in 50 mL water using Cuisinart pressure cooker for 20 min at high pressure. Slides were washed three times for three minutes each in 1×TBS with 0.025% Triton X-100. Sections were blocked with 1% bovine serum albumin (Thermo Fisher Scientific, catalog no. BP1600) and 5% goat serum (Millipore Sigma, catalog no. G9023) for 1 hour. Slides were stained overnight at 4° C. with a primary antibody diluted in TBS containing 1% BSA (Table A). The following day, slides were washed as above and incubated in 100 μL biotinylated secondary antibody (VECTOR Laboratories, catalog no. PK-6200) for 30 min. After washing, slides were incubated with 100 μL mixture of reagent A and B from VECTASTAIN Elite ABC universal kit Peroxidase (VECTOR Laboratories, catalog no. PK-6200) for 30 min. After washing, slides were incubated with 100 μL ImmPACT DAB chromogen stating (VECTOR Laboratories, catalog no. SK-4105) for a few minutes. Finally, slides were dehydrated in ethanol and xylene and mounted with a coverslip using 3 drops of mounting media. For immunofluorescence staining, rehydrated tissue sections were permeated with 1×PBS supplemented with 0.2% Triton X-100 for 5 min. Antigen retrieval was performed similar to immunohistochemistry. Slides were washed three times for three minutes each in 1×PBS with 0.1% TWEEN20. […] The number of positive cells was counted in randomly selected high power field (HPF, 200× magnification) images in a blinded manner by a trained investigator. […]

[4] = tested on: DMBA/TPA skin tumors in WT and K14-IL33tg,ST2KO mice; assay: DMBA/TPA skin carcinogenesis protocol with SB431542; format: in vivo, mouse
Experimental: For DMBA/DNFB carcinogenesis protocol (Ameri et al., 2019), four- to six-week-old male and female mice were shaved on their abdomen and sensitized to 50 μL 0.5% DNFB. Two days later, mice were re-sensitized to 50 μL 0.25% DNFB on the abdomen. Five days later, mice were treated with […] 7,12-dimethylbenz(a)anthracene (DMBA, Millipore Sigma, catalog no. D3254) in 200 μL acetone on their back skin. After a week, mice were challenged with 100 μL 0.25% DNFB on their back skin, which was continued three times per week for 30 weeks at the dosage that maintained mild erythematous dermatitis in WT mice. Skin rash and tumor development were monitored and recorded weekly over the duration of the study. For DMBA/TPA carcinogenesis protocol, mice were treated with 6 μg 12-O-tetradecanoylphorbol-13-acetate (TPA, Millipore Sigma, catalog no. P1585) in 200 μL acetone instead of DNFB in DMBA/DNFB protocol without abdominal sensitization.
as §1
Tissue samples were collected and fixed in 4% paraformaldehyde (Millipore Sigma, catalog no. P6148) overnight at 4° C. Next, tissues were dehydrated in ethanol, processed and embedded in paraffin. 5 μm sections paraffin-embedded tissues were placed on slides, deparaffinized and stained with H&E. For immunohistochemistry, antigen retrieval was performed in 500 μL of antigen unmasking solution (VECTOR Laboratories, Burlingame, Calif., catalog no. H3300) diluted in 50 mL water using Cuisinart pressure cooker for 20 min at high pressure. Slides were washed three times for three minutes each in 1×TBS with 0.025% Triton X-100. Sections were blocked with 1% bovine serum albumin (Thermo Fisher Scientific, catalog no. BP1600) and 5% goat serum (Millipore Sigma, catalog no. G9023) for 1 hour. Slides were stained overnight at 4° C. with a primary antibody diluted in TBS containing 1% BSA (Table A). The following day, slides were washed as above and incubated in 100 μL biotinylated secondary antibody (VECTOR Laboratories, catalog no. PK-6200) for 30 min. After washing, slides were incubated with 100 μL mixture of reagent A and B from VECTASTAIN Elite ABC universal kit Peroxidase (VECTOR Laboratories, catalog no. PK-6200) for 30 min. After washing, slides were incubated with 100 μL ImmPACT DAB chromogen stating (VECTOR Laboratories, catalog no. SK-4105) for a few minutes. Finally, slides were dehydrated in ethanol and xylene and mounted with a coverslip using 3 drops of mounting media. For immunofluorescence staining, rehydrated tissue sections were permeated with 1×PBS supplemented with 0.2% Triton X-100 for 5 min. Antigen retrieval was performed similar to immunohistochemistry. Slides were washed three times for three minutes each in 1×PBS with 0.1% TWEEN20. Sections were blocked with 1% bovine serum albumin and 5% goat serum for 1 hour. The slides were stained overnight at 4° C. with primary antibodies (Table A). The following day, slides were washed as above and incubated for two hours at room temperature with secondary antibodies conjugated to fluorochromes (Table A). Next, slides were incubated with 1:2000 DAPI (Thermo Fisher Scientific, catalog no. D3571) for five minutes at room temperature, then washed as above. Slides were mounted with Prolong Gold Antifade Reagent (Thermo Fisher Scientific, catalog no. P36930). The number of positive cells was counted in randomly selected high power field (HPF, 200× magnification) images in a blinded manner by a trained investigator. Clinical samples were reviewed by a pathologist.

[5] = DMBA/TPA-treated K14-IL33tg,ST2KO skin, vs acetone-treated controls
[6] = K14-IL33tg,ST2KO mice, DMBA/TPA, vs acetone-treated
[7] = WT mice, 30-week DMBA/TPA treatment

## NC(=O)c1ccc(-c2nc(-c3ccc4c(c3)OCO4)c(-c3ccccn3)[nH]2)cc1 [SB431542]
[1]
  Pam212 cell proliferation: reduced
[2]
  Ki67+ proliferating cells: significantly reduced
[3]; DNFB-treated IL-33KO mice
  epidermal hyperplasia: no impact
  keratinocyte proliferation: no impact
[3]; DNFB-treated WT mice
  keratinocyte proliferation: markedly decreased
[3]; DNFB-treated WT mice, 10 μM SB431542 in 200 μL acetone twice a week
  epidermal hyperplasia: markedly decreased
[4]; DMBA/TPA-treated K14-IL33tg,ST2KO skin
  apoptosis (cleaved caspase-3): without impacting
[4]; [5]
  number of Ki67+ epidermal keratinocytes: reduced
  number of p-SMAD2/3+ epidermal keratinocytes: reduced
[4]; [6]
  number of skin tumors: significantly fewer
  tumor latency: markedly increased
[4]; K14-IL33tg,ST2KO mice, DMBA/TPA, vs controls
  skin tumor size: smaller
[4]; [7]
  endpoint tumor volumes: no significant impact
  skin tumor onset: no significant impact
  tumor numbers over time: no significant impact
